[C(1O2)] = modified PNA monomer acting as cytosine, C(pOq) type, 1O2; [A(5)] = modified PNA monomer acting as adenine, A(p) type, p=5; [A(6)] = modified PNA monomer acting as adenine, A(p) type, p=6; [G(5)] = modified PNA monomer acting as guanine, G(p) type, p=5; [G(6)] = modified PNA monomer acting as guanine, G(p) type, p=6; {Fethoc} = N-terminal Fethoc cap; {NH2} = C-terminal amide
Columns and labels:
full-length SNAP25 mRNA = experiment: SNAP25 nested qPCR in PC12 cells; format: cell-based, rat
Description: [Cell Culture & ASO Treatment] PC12 cells grown in 60 mm culture dish containing 5 mL culture medium were treated with “SNAP-ASO 3” at 0 (negative control), 10, 100 or 1,000 zM. (2 culture dishes per ASO concentration) [RNA Extraction & cDNA Synthesis by One-step RT-PCR] Following an incubation with “SNAP-ASO 3” for 42 hours, the cells were treated 100 μg/mL cycloheximide for another 6 hours to freeze the ribosomal translation. Then total RNA was extracted from cells using “Universal RNA Extraction Kit” (Cat. Number 9767, Takara) according to the manufacturer's instructions. […] NO: 130); and SNAP-exon 14_reverse: (5'→3') […] [Nested qPCR Amplification] […] NO: 132); and SNAP-exon 8q_reverse: (5'→3') […] The qPCR reaction was followed with a Taqman probe of [(5'→3') 5,6-[…] NO: 134)] targeting the junction of exon 7 and exon 8 in order to quantify the full-length SNAP25 mRNA.

SNAP25 protein [1] = experiment: SNAP25 western blot in PC12 cells; format: cell-based, rat; details: 100 or 1,000 zM, 48 hours or 72 hours
Description: “SNAP-ASO 3” was evaluated for its ability to inhibit the expression of the SNAP25 protein in PC12 cells as follows.
PC12 cells were grown in 60 mm culture dish containing 5 mL culture medium, and treated with “SNAP-ASO 3” at 0 zM (negative control), 1 zM, 10 zM, 30 zM, 100 zM, 300 zM, 1 aM, 3 aM or 10 aM for 48 hours. There were 4 culture dishes of the negative control to compensate for potential technical artifacts during the western blot analysis.
[Cell Lysis] Then the cells were subjected to lysis on ice with 200 μL 1×RIPA buffer (Cat. Number 9806, Cell Signaling Tech) supplemented with 1% SDS and 1× proteinase inhibitors cocktail (cOmplete Mini, Roche). The lysates were collected in 1.5 mL e-tube, mixed with 100 μL 5× sample buffer, and boiled for 5 min.
[Western Blot] The lysates were subjected to electrophoretic separation on a 4-15% TGX-PAGE gradient gel (Cat. Number 456-1086, Bio-Rad) and then transferred onto a 0.45 μm PVDF membrane. The membrane was probed with an anti-SNAP25 antibody (Cat. Number S9684, Sigma) and an anti-β-actin antibody (Cat. Number A3845, Sigma).
“SNAP-ASO 1” was evaluated for its ability to inhibit the SNAP25 protein expression in PC12 cells as described in “SNAP25 Example 4”, unless noted otherwise. PC12 cells were treated with “SNAP-ASO 1” at 0 (negative control), 100 or 1,000 zM either for 48 hours or for 72 hours. […]

SNAP25 protein [2] = experiment: SNAP25 IHC in skin of mice after topical administration; format: in vivo, C57BL/6 mice; details: topical 1, 10 or 100 fM solution, twice per day Days 0 to 4
Description: “SNAP-ASO 1” is a 16-mer ASO fully complementary to the 3′ splice site spanning the junction of intron 6 and exon 7 in the mouse SNAP25 pre-mRNA read out from the mouse genomic DNA [accessed from NCBI Reference Sequence: NC_000068]. “SNAP-ASO 1” was evaluated for its ability to inhibit the expression of SNAP25 protein in the skin upon topical administration as follows.
[Hair Cut and Grouping] In Day 0, 8 female C57BL/6 mice (5 weeks old) were anesthetized with zoletil/rompun, and the hair in the back (ca 3 cm×4 cm) was cut with a clipper. The mice were randomly assigned into 4 groups, i.e., no ASO treatment group (negative control) and 3 treatment groups of 1 fM, 10 fM and 100 fM “SNAP-ASO 1”. (2 animals per group)
[Topical Administration] Topical solutions were prepared by serially diluting an aqueous stock solution of “SNAP-ASO 1” in 30% (v/v) aqueous ethanol supplemented with 3% (v/v) glycerin to 0, 1, 10 and 100 fM “SNAP-ASO 1”. […]
[SNAP25 IHC] Skin samples were cryo-sectioned and immunostained in series with a primary anti-SNAP25 antibody (Cat. Number ab41455, Abcam) at 1:200 dilution, with a secondary anti-IgG (Cat Number BA-1100, Vector) at 1:200 dilution, and then with Dylight 594-streptavidin (Cat Number SA-5594, Vector, CA, USA) at 1:200 dilution for red fluorescence tagging. […]

10-mer complementary DNA = experiment: Tm between PNA derivatives and 10-mer complementary DNA (N- or C-terminal); format: binding; details: uncorrected
Outline: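 Tm read by UV at 260 nm for duplexes formed by annealing (90 °C for a minute, slow cooling to ambient) of equimolar 4 μM PNA and complementary 10-mer DNA targeting N- or C-terminal, in 10 mM sodium phosphate, 100 mM NaCl, pH 7.16.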

rat SNAP25 pre-mRNA = experiment: SNAP25 nested PCR for exon skipping in PC12 cells; format: cell-based
Description: PC12 cells were maintained in RPMI 1640 medium supplemented with 5% FBS, 10% horse serum, 1% streptomycin/penicillin, 1% L-glutamine, and 1% sodium pyruvate under 5% CO2 atmosphere at 37° C. Cells grown in 60 mm culture dish containing 5 mL culture medium were treated with “SNAP-ASO 3” at 0 (negative control), 10, 100 or 1,000 zM. [RNA Extraction & cDNA Synthesis by One-step PCR] Following an incubation with “SNAP-ASO 3” for 42 hours, the cells were treated with 100 μg/mL cycloheximide for another 6 hours in order to freeze the ribosomal translation. Then total RNA was extracted using “Universal RNA Extraction Kit” (Cat. Number 9767, Takara) according to the manufacturer's instructions. […] NO: 126); and SNAP-exon 14_reverse: (5'→3') […] [Nested PCR Amplification] […] NO: 128); SNAP-exon 14n_reverse: (5'→3') […] [Identification of Exon Skipping Products] The PCR products were subjected to electrophoretic separation on a 2% agarose gel. The bands of target size were collected and analyzed by Sanger Sequencing.

[3] = test system: full-length human SNAP25 mRNA; experiment: SNAP25 qPCR in SiMa cells; format: cell-based; details: 100 aM
Description: [Cell Culture & ASO Treatment] SiMa cells were grown in 60 mm culture dish containing 5 mL culture medium, and were treated with “SNAP-ASO 3” at 0 zM (negative control), 1 zM, 10 zM, 100 zM or 1 aM, 10 aM, or 100 aM. (2 culture dishes per ASO concentration) [RNA Extraction & cDNA Synthesis] Total RNA was extracted from cells using “RNeasy Mini Kit” (Cat. Number 74106, Qiagen) according to the manufacturer's instructions. […] [qPCR Amplification] The PCR reactions were monitored with a Taqman probe [(5' 3') 56-[…] NO: 137)] targeting the junction of exon 6 and exon 7 against a set of exon-specific primers [SNAP-exon 6_forward: (5'→3') […] NO: 138); and SNAP-exon 8_reverse(2): (5'→3') […] NO: 139)].

Row | Substance | decrease of full-length SNAP25 mRNA level (qPCR) (full-length SNAP25 mRNA; PC12 cells, 10 zM) | decrease of full-length SNAP25 mRNA level (qPCR) (full-length SNAP25 mRNA; PC12 cells, 100 zM) | decrease of full-length SNAP25 mRNA level (qPCR) (full-length SNAP25 mRNA; PC12 cells, 1,000 zM) | expression of the SNAP25 protein (western blot) (SNAP25 protein [1]) | SNAP25 protein expression in the muscle layer of skin (IHC) (SNAP25 protein [2]) | Tm Value, 10-mer DNA against C-Terminal (10-mer complementary DNA) | Tm Value, 10-mer DNA against N-Terminal (10-mer complementary DNA) | intensity of the full-length SNAP25 mRNA by nested PCR (rat SNAP25 pre-mRNA; PC12 cells, 10, 100 or 1,000 zM) | SNAP25 exon skipping by nested PCR (rat SNAP25 pre-mRNA; PC12 cells, 10 zM, 42 hours then cycloheximide 6 hours) | inhibition of full-length human SNAP25 mRNA level (qPCR) [3]
1 | Fethoc-A(6)TT-TG(6)T-TA(6)C-CC(1O2)T-GG(6)G-A(6)-NH2 (ATTTGTTACCCTGGGA; all peptide nucleic acid (PNA), [A(6)] at 1, 8, 16, [G(6)] at 5, 14, [C(1O2)] at 11, 5' {Fethoc}, 3' {NH2}; peptide nucleic acid written N to C) [SNAP-ASO 1] | ~50% | 40% | 70% | considerably inhibited | gradually decreased as the dose was increased | – | – | – | – | –
2 | Fethoc-TG(5)T-TA(6)C-C(1O2)CT-GG(5)G-A(5)T-NH2 (antisense TGTTACCCTGGGAT; all peptide nucleic acid (PNA), [G(5)] at 2, 11, [A(6)] at 5, [C(1O2)] at 7, [A(5)] at 13, 5' {Fethoc}, 3' {NH2}; peptide nucleic acid written N to C) [SNAP-ASO 3] | ~50% | 20% | slightly higher than the level of the cells without ASO treatment | – | – | 88.7 °C | 77.3 °C | decreased most in the cells treated with 10 zM | yielded a faint PCR band assignable to the skipping of exons 5-7 | 40%

From patent US12624068B2, “Exon skipping by peptide nucleic acid derivatives” (OliPass Corporation, priority 2016, dated 2026)
